Test results: patent US4540700A, “Treatment of diabetic complications with certain spiro-imidazolidine-diones” (Alcon Laboratories, Inc., priority 1984, dated 1985)
pIC50: −log10 of the molar value. Like-named read-outs stand apart in the source and are kept apart here. One block for each compound: values may come before it.

Assays:
Format in all cases: biochemical
Human Aldose Reductase = Human Aldose Reductase (Homo sapiens, UniProt P15121); test: Human Aldose Reductase Inhibition
Rat Aldose Reductase = Rat Aldose Reductase (Rattus norvegicus, UniProt P07943); test: Rat Aldose Reductase Inhibition; conditions: for inhibition at 100 µM: 10^-4, read-out: In vitro Aldose Reductase Inhibition; for inhibition at 10 µM: 10^-5, read-out: In vitro Aldose Reductase Inhibition; for inhibition at 1 µM: 10^-6, read-out: In vitro Aldose Reductase Inhibition; for inhibition at 0.1 µM: 10^-7, read-out: In vitro Aldose Reductase Inhibition; for inhibition at 0.01 µM: 10^-8, read-out: In vitro Aldose Reductase Inhibition
From the text: Biophysical Chemistry, 8 (1978) 81-85; P. F. Kador, L. O. Merola and J. H
Kinoshita Documenta Ophthamologica, 18 (1979) 117.

aldose reductase = aldose reductase inhibition of spiro-xanthene-imidazolidines (in words)
[1] = 10^-4, human, read-out: In vitro Aldose Reductase Inhibition
[2] = 10^-5, human, read-out: In vitro Aldose Reductase Inhibition
[3] = 10^-6, human, read-out: In vitro Aldose Reductase Inhibition
[4] = read-out: In vitro Aldose Reductase Inhibition

inhibition at 100 µM (Human Aldose Reductase; [1]): 65%
inhibition at 10 µM (Human Aldose Reductase; [2]): 20%
inhibition at 1 µM (Human Aldose Reductase; [3]): 8%
SMILES: O=C1NC(=O)C2(N1)c1ccccc1-c1ccc([N+](=O)[O-])cc12 (racemic) [C, dl-Spiro-[2-nitrofluoren-9,4'-imidazolidine]-2',5'-dione]

inhibition at 100 µM (Rat Aldose Reductase): 100%
inhibition at 10 µM (Rat Aldose Reductase): 82%
inhibition at 1 µM (Rat Aldose Reductase): 62%
inhibition at 0.1 µM (Rat Aldose Reductase): 33%
inhibition at 0.01 µM (Rat Aldose Reductase): 8%
SMILES: O=C1NC(=O)C2(N1)c1ccccc1-c1ccc(Br)cc12 (racemic) [E, dl-Spiro-[2-bromofluoren-9,4'-imidazolidine]-2', 5'-dione]

inhibition at 100 µM (Human Aldose Reductase; [1]): 50%
inhibition at 10 µM (Human Aldose Reductase; [2]): 28%
inhibition at 1 µM (Human Aldose Reductase; [3]): 20%
SMILES: Nc1cccc2c1-c1ccccc1C21NC(=O)NC1=O (racemic) [G, dl-Spiro-[4-aminofluoren-9,4'-imidazolidine]-2',5'-dione]

inhibition at 100 µM (Human Aldose Reductase; [1]): 43%
inhibition at 10 µM (Human Aldose Reductase; [2]): 31%
inhibition at 1 µM (Human Aldose Reductase; [3]): 0%
SMILES: Nc1ccc2c(c1)C1(NC(=O)NC1=O)c1ccccc1-2 (racemic) [H, dl-Spiro-[2-aminofluoren-9,4'-imidazolidine]-2',5'-dione]

inhibition at 100 µM (Human Aldose Reductase; [1]): 94%
inhibition at 10 µM (Human Aldose Reductase; [2]): 88%
inhibition at 1 µM (Human Aldose Reductase; [3]): 77%
inhibition at 0.1 µM (Human Aldose Reductase; 10^-7, human, read-out: In vitro Aldose Reductase Inhibition): 39%
inhibition at 0.01 µM (Human Aldose Reductase; 10^-8, human, read-out: In vitro Aldose Reductase Inhibition): 0%
SMILES: O=C1NC(=O)C2(N1)c1ccccc1-c1ccc(I)cc12 (racemic) [J, dl-Spiro-[2-iodofluoren-9,4'-imidazolidine]-2',5'-dione]

inhibition at 100 µM (Rat Aldose Reductase): 96%
inhibition at 10 µM (Rat Aldose Reductase): 85%
inhibition at 1 µM (Rat Aldose Reductase): 47%
inhibition at 0.1 µM (Rat Aldose Reductase): 6%
SMILES: Cc1cccc2c1C1(NC(=O)NC1=O)c1ccccc1-2 (racemic) [K, dl-Spiro-[1-methylfluoren-9,4'-imidazolidine]-2',5'-dione]

inhibition at 100 µM (Rat Aldose Reductase): 89%
inhibition at 10 µM (Rat Aldose Reductase): 54%
inhibition at 1 µM (Rat Aldose Reductase): 0%
SMILES: O=C1NC(=O)C2(N1)c1ccccc1-c1ccc(C(=O)O)cc12 (racemic) [N, dl-Spiro-[2-carboxyfluoren-9,4'-imidazolidine]-2',5'-dione]

pIC50 (Rat Aldose Reductase): 6.38
SMILES: CSc1ccc2c(c1)C1(NC(=O)NC1=O)c1ccccc1-2 (racemic) [P, dl-Spiro-[2-methylthiofluoren-9,4'-imidazolidine]-2',5'-dione]

pIC50 (Rat Aldose Reductase): 5.77
SMILES: C[S+]([O-])c1ccc2c(c1)C1(NC(=O)NC1=O)c1ccccc1-2 (racemic) [Q, Spiro-[2-(R,S)-methylsulfinylfluoren-9, (R,S)-4'-imidazolidine]-2',5'-dione]

pIC50 (Rat Aldose Reductase): 5.30
SMILES: CS(=O)(=O)c1ccc2c(c1)C1(NC(=O)NC1=O)c1ccccc1-2 (racemic) [R, dl-Spiro-(2-methylsulfonylfluoren-9,4'-imidazolidine)-2',5'-dione]

pIC50 (Rat Aldose Reductase): 6.23
SMILES: O=C1NC(=O)C2(N1)c1ccccc1-c1cccc(F)c12 (racemic) [S, dl-Spiro-[1-fluorofluoren-9,4'-imidazolidine]-2',5'-dione]

pIC50 (Rat Aldose Reductase): 6.34
SMILES: O=C1NC(=O)C2(N1)c1ccccc1-c1c(F)cccc12 (racemic) [U, dl-Spiro-[4-fluorofluoren-9,4'-imidazolidine]-2',5'-dione]

pIC50 (Human Aldose Reductase; human): 5.92
inhibition at 0.1 µM (Human Aldose Reductase; [4]): 13%
inhibition at 1 µM (Human Aldose Reductase; [4]): 49%
inhibition at 10 µM (Human Aldose Reductase; [4]): 84%
inhibition at 100 µM (Human Aldose Reductase; [4]): 89%
SMILES: O=C1NC(=O)C2(N1)c1ccccc1-c1ccccc12 [A, Spiro-(fluoren-9,4'-imidazolidine)-2',5'-dione]

In vitro Aldose Reductase Inhibition (Human Aldose Reductase; 10^-4, human): 65
In vitro Aldose Reductase Inhibition (Human Aldose Reductase; 10^-5, human): 30
In vitro Aldose Reductase Inhibition (Human Aldose Reductase; 10^-6, human): 12
SMILES: O=C1NC(=O)C2(N1)c1cc(Cl)ccc1-c1ccc(Cl)cc12 [Compound B, Spiro-[2,7-dichlorofluoren-9,4'-imidazolidine]-2',5'-dione]

SMILES: O=C1NC(=O)C2(N1)c1cc([N+](=O)[O-])ccc1-c1ccc([N+](=O)[O-])cc12 [Compound D, Spiro [2,7-dinitrofluoren-9,4'-imidazolidine]-2',5'-dione]
inhibition at 1 µM (Human Aldose Reductase; [4]): 20%
inhibition at 10 µM (Human Aldose Reductase; [4]): 76%
inhibition at 100 µM (Human Aldose Reductase; [4]): 100%

inhibition at 10 µM (Rat Aldose Reductase): 94%
inhibition at 1 µM (Rat Aldose Reductase): 76%
inhibition at 0.1 µM (Rat Aldose Reductase): 55%
inhibition at 0.01 µM (Rat Aldose Reductase): 12%
SMILES: O=C1NC(=O)C2(N1)c1cc(Br)ccc1-c1ccc(Br)cc12 [F, Spiro-[2,7-dibromofluoren-9,4'-imidazolidine]-2',5'-dione]

inhibition at 100 µM (Human Aldose Reductase; [1]): 50%
inhibition at 10 µM (Human Aldose Reductase; [2]): 25%
inhibition at 1 µM (Human Aldose Reductase; [3]): 10%
SMILES: Nc1ccc2c(c1)C1(NC(=O)NC1=O)c1cc(N)ccc1-2 [I, Spiro-[2,7-diaminofluoren-9,4'-imidazolidine]-2',5'-dione]

activity against human aldose reductase as compared to rat aldose reductase (Human Aldose Reductase; human vs rat): one fourth
SMILES: O=C1NC(=O)C2(CCOc3ccc(F)cc32)N1 (stereo not shown) [Sarges Resolved, dSpiro-(6-fluorochroman-4,4imidazolidine)-2',5dione, reference compound]

activity as aldose reductase inhibitors relative to corresponding tetracyclic fluorene compounds (aldose reductase): unexpectedly less active
SMILES: O=C1NC(=O)C2(N1)c1cc(F)ccc1Oc1ccc(F)cc12 [spiro-(2,7-difluroxanthen-9,4'-imidazolidine)-2',5'-dione]

activity as aldose reductase inhibitors relative to corresponding tetracyclic fluorene compounds (aldose reductase): unexpectedly less active
SMILES: O=C1NC(=O)C2(N1)c1ccccc1Oc1ccccc12 [spiro-(xanthen-9,4'-imidazolidine)-2',5'-dione]
